Laboratory results: article PMC11796312, “Multifunctional, Fluorene‐Based Modulator of Cholinergic and GABAergic Neurotransmission as a Novel Drug Candidate for Palliative Treatment of Alzheimer's Disease” (Angewandte Chemie (International Ed. in English), 2024)

Assays:
[1] = molecular target: T1, mGAT4 (Mus musculus, UniProt P31650); assay: [3H]GABA uptake assay, mGAT4; format: cell-based; details: GABA uptake assay; mGAT4 corresponds to GAT3; read-out: mGAT4 IC50
T1 sequence (P31650 1-627): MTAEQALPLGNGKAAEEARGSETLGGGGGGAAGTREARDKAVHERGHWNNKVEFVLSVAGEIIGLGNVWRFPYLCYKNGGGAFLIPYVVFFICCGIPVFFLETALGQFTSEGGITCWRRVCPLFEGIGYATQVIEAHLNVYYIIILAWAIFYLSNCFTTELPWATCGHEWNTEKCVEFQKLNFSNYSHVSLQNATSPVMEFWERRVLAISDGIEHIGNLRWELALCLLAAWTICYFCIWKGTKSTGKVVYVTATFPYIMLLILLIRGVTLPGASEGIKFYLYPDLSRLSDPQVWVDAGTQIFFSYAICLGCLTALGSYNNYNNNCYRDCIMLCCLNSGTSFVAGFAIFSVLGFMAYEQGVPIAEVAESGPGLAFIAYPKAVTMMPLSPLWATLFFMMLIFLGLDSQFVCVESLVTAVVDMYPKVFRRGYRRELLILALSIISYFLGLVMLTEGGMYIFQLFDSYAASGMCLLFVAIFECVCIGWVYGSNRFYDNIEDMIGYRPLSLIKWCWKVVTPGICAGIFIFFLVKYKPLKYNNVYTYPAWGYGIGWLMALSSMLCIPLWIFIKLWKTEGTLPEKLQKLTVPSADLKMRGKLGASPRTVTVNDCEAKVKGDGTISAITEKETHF

[2] = molecular target: T2, mGAT1 (Mus musculus, UniProt P31648); assay: [3H]GABA uptake assay, mGAT1; format: cell-based; details: GABA uptake assay; read-out: mGAT1 IC50
[3] = molecular target: T3, mGAT3 (Mus musculus, UniProt P31649); assay: [3H]GABA uptake assay, mGAT3; format: cell-based; details: GABA uptake assay; read-out: mGAT3 IC50
T3 sequence (P31649 1-602): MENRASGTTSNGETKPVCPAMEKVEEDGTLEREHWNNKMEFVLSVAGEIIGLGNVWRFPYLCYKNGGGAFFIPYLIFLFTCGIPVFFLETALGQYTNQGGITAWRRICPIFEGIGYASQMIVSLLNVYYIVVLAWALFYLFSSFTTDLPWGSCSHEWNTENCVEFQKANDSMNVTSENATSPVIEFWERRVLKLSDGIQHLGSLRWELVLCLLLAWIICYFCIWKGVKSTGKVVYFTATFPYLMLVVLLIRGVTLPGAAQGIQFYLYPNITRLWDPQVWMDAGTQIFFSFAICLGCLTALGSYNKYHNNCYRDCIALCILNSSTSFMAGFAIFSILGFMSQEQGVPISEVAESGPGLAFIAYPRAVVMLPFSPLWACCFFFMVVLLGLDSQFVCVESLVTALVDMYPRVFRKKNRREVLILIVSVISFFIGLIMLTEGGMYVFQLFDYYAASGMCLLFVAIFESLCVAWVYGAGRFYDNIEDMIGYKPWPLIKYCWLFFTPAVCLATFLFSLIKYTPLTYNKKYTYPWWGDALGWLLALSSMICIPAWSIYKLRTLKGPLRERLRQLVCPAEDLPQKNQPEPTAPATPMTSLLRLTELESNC

[4] = molecular target: T2, mGAT1; assay: MS Binding Assay with NO 711 as marker; details: for Ki: MS Binding Assay, NO 711 marker, read-out: pKi ± SEM toward mGAT1 (converted); for percent of remaining NO711 binding, mGAT1: 100 μM inhibitor
[5] = molecular target: T4, eqBuChE (Equus caballus, UniProt P81908); assay: biochemical; details: means±SEM of at least three experiments
T4 construct: purchased Sigma-Aldrich

[6] = molecular target: T5, eeAChE (Electrophorus electricus, UniProt O42275); assay: Cholinesterase inhibition, Ellman's protocol, eeAChE; format: biochemical; details: read-out: eeAChE % inh.
T5 construct: purchased Sigma-Aldrich
Method: In vitro pharmacological assays.
The in vitro inhibitory activity toward cholinesterases (eeAChE, eqBuChE,
The target compounds were tested for their inhibitory potency against cholinesterases using
Ellman’s protocol[32] modified for 96-well microplates.
The stock solutions of the
target compounds were prepared in DMSO and diluted with water, giving the desired final
concentrations. The enzymes were prepared as 5 U/mL aqueous stock solutions and diluted
(AChE or BuChE) were added to the reaction mixture in the wells, containing 25 μL of the
target compound (in case of blank samples – water or water/DMSO mixture), 200 μL of 0.1
M phosphate buffer (pH = 8.0) and 20 μL of 5,5'-dithiobis-(2-nitrobenzoic acid) DTNB
All those reagents were preincubated for 5 min at 25 °C for the reactions with the
animal enzymes (eeAChE or eqBuChe) and 36 °C for the human enzyme ( hBuChE) tests. The
enzymatic reaction was initiated by the addition of 20 μL of substrate acetylthiocholine iodide
using the EnSpire multimode microplate reader (PerkinElmer, Waltham, MA, USA). Target
compounds were tested at the screening concentrations of 10 μM or 1 µM for inhibitory
potencies towards animal cholinesterases or human enzyme, respectively. Percent of enzyme
inhibition was calculated based on the formula 100 -(S/B)x100, where S and B were the
respective enzyme activities with and without the test compound, respectively. Compounds
with the enzyme inhibitory activities at 10 μM better than 50% ( eeAChE or eqBuChe) and at
were based on the absorbance measured at seven different inhibitor concentrations, then
percentages of enzymes’ inhibition were plotted against the applied inhibitor concentrations
using nonlinear regression (GraphPad Prism 9; GraphPad Software, San Diego, CA, USA).
All the experiments were performed in
a %inh. at an inhibitor concentration of 10 µM

[7] = molecular target: T6, mGAT2 (Mus musculus, UniProt P31651); assay: [3H]GABA uptake assay, mGAT2; format: cell-based; details: GABA uptake assay; read-out: mGAT2 IC50
T6 sequence (P31651 1-614): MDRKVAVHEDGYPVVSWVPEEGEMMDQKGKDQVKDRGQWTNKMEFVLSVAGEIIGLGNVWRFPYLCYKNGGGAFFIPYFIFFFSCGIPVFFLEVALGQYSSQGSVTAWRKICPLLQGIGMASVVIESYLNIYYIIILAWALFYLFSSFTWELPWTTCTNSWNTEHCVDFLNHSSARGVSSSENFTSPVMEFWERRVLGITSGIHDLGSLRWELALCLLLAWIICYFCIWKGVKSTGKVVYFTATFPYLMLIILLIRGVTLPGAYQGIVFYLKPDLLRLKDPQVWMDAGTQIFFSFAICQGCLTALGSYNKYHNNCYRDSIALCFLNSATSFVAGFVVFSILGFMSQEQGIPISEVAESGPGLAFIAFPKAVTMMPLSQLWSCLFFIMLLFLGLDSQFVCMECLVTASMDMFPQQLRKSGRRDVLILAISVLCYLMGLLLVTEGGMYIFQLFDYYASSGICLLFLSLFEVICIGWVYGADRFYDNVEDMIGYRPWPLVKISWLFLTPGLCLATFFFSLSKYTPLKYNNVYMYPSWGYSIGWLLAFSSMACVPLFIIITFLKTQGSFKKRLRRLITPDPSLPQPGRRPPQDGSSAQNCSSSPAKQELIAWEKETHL

[8] = molecular target: T7, human butyrylcholinesterase (hBuChE) (Homo sapiens, UniProt P06276); assay: biochemical; details: for IC50: means±SEM of at least three experiments; for inhibition at 1 µM: inhibitor concentration 1 μM, read-out: hBuChE % inh.
T7 construct: from human plasma was from Vivonics (Bedford, MA, USA); purchased Vivonics (Bedford, MA, USA); host or cells: human plasma

[9] = molecular target: T8, human serotonin 5-HT6 receptor (Homo sapiens, UniProt P50406); assay: cAMP 5-HT6 functional assay; format: cell-based; details: % of maximal antagonist response (SB258585 10^-5M); 22 nM serotonin
T8 construct: host or cells: 1321N1
Method: Functional assays for 5-HT6 receptor
Test compounds were dissolved in dimethyl sulfoxide (DMSO) at a concentration of 10 mM.
Serial dilutions were prepared in a 96-well microplate in assay buffer, and 8 concentrations
were tested. For the 5-HT6, adenylyl cyclase activity was monitored using cryopreserved
cells were resuspended in stimulation buffer (HBSS, 5 mM HEPES, 0.5 IBMX, and 0.1%
BSA at pH 7.4) at 2x10^5 cells/ml. The same volume (10 μl) of cell suspension was added to
the tested compounds. Samples were loaded onto a white opaque half-area 96-well
reference agonist for the 5-HT6 receptor. The agonist and antagonist were added
simultaneously. Cell stimulation was performed for 30 minutes at room temperature. After
incubation, cAMP measurements were performed with homogeneous TR-FRET immunoassay
using the LANCE Ultra cAMP kit (PerkinElmer, USA). The volume of 10 μl of EucAMP
Tracer Working Solution and 10 μl of ULight-anti-cAMP Tracer Working Solution were
added, mixed, and incubated for 1 h. The TR-FRET signal was read on an EnVision
microplate reader (PerkinElmer, USA). IC 50 and EC 50 were determined by nonlinear
regression analysis using GraphPad Prism 9.0 software.

[10] = system: SIM-A9 cells; assay: Intracellular RONS, DCFH-DA probe, SIM-A9; format: cell-based, mouse
[11] = system: SH-SY5Y cells; assay: LC-MS determination of total MDA, SH-SY5Y; format: cell-based, human
[12] = system: Human neuroblastoma cells SH-SY5Y; assay: MTT cell viability assay, SH-SY5Y; format: cell-based; details: 24 h, read-out: IC50 (MTT) ± SEM
Excerpt: (§1) Human neuroblastoma cells SH-SY5Y and mouse microglial cells SIM-A9 were used to evaluate cell viability, intracellular RONS, and malondialdehyde (MDA; CAS No. 542–78-9).
(§2) SH-SY5y cells were cultivated in Dulbecco's modified Eagle's medium (DMEM; Biosera, Nuaille, France) supplemented with 10% fetal bovine serum (Biosera) and 1% penicillin-streptomycin antibiotic solution (Sigma-Aldrich, St. Louis, MO, USA). The culture medium for SIM-A9 cells was further supplemented with donor horse serum (Biosera). The cells were incubated at 37 °C in a CO2 incubator (BINDER CO2 incubator CB 160, Tuttlingen, Germany) and routinely passaged by trypsinization at 75 –85% confluence.
(§3) Colorimetric Cell Viability Assay
(§4) The toxicological indices IC 50 used in the present study were measured utilizing 3-(4,5-dimethylthiazol-2-yl)-2,5-diphenyl-tetrazolium bromide (MTT) reduction assay after (1 picture or pasted object on this page, not shown here)
(§5) 24 h incubation with tested compounds. […]
(§6) incubation, the cultivation medium containing serially diluted substances was aspirated and replaced with a fresh medium containing MTT at a concentration of 0.5 mg/mL and subsequently incubated at 37 °C for 1 h. […] Cell viability was assessed spectrophotometrically by the amount of formazan produced. Absorbance was measured at 570 nm with 650 nm reference wavelength on Spark (Tecan Group Ltd, Switzerland). […]

[13] = system: SH-SY5Y cells; assay: Intracellular RONS, DCFH-DA probe, SH-SY5Y; format: cell-based, human
[14] = system: mouse microglial cells SIM-A9; assay: MTT cell viability assay, SIM-A9; format: cell-based; details: SIM-A9, 24 h; read-out: IC50 (MTT) ± SEM
Excerpt: as §1, §2, §3, §4, §5, §6

[15] = system: SIM-A9 cells; assay: Intracellular O2•-, DHE probe, SIM-A9; format: cell-based, mouse
[16] = system: SH-SY5Y cells; assay: Intracellular O2•-, DHE probe, SH-SY5Y; format: cell-based, human
[17] = system: SIM-A9 cells; assay: LC-MS determination of total MDA, SIM-A9; format: cell-based, mouse

T4 sequence (P81908 whole entry): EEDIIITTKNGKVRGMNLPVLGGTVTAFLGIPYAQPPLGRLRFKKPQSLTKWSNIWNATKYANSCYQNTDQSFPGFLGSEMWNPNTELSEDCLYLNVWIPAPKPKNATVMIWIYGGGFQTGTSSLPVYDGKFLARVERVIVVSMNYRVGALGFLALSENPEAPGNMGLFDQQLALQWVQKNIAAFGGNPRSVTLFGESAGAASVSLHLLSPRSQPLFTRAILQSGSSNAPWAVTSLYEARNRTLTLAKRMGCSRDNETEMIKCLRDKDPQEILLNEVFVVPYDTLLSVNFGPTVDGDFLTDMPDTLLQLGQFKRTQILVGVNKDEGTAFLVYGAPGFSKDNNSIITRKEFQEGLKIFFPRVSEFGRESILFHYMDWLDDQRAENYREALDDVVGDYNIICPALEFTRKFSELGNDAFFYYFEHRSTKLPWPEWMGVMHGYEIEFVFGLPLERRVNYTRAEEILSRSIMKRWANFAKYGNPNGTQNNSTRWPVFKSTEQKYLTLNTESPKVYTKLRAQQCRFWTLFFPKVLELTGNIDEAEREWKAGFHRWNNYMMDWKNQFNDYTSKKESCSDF
T5 sequence (O42275 24-633): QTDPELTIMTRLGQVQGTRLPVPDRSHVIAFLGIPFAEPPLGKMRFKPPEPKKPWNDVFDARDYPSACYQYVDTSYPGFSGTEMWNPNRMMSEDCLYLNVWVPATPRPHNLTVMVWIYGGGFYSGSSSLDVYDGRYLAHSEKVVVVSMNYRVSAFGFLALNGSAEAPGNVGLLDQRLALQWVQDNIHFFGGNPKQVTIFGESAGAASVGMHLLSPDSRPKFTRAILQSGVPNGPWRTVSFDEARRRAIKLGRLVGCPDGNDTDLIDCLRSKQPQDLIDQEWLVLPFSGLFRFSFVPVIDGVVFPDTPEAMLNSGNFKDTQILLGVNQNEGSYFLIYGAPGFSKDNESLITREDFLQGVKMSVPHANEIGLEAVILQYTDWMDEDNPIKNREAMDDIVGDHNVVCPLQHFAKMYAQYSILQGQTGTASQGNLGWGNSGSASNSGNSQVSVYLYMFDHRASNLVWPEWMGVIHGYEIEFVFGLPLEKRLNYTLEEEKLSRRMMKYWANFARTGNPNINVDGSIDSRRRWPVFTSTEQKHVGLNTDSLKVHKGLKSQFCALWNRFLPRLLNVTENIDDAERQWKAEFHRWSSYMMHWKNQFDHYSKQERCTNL
T7 sequence (P06276 29-602): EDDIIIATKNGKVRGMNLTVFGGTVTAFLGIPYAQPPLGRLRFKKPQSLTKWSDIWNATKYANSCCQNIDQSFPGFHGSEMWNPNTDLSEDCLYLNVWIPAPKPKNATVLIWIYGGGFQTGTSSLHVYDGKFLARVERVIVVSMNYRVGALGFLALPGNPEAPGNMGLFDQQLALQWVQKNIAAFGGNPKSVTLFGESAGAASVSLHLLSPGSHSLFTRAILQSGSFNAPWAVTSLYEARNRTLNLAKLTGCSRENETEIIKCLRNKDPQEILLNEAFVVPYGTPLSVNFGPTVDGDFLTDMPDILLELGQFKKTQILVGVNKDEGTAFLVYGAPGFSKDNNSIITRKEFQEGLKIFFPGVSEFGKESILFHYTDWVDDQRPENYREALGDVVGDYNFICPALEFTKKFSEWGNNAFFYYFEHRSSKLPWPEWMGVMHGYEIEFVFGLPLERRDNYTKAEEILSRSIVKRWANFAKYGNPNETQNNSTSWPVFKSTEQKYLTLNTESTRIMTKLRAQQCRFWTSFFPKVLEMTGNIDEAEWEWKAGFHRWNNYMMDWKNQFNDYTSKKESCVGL
T8 sequence (P50406 whole entry): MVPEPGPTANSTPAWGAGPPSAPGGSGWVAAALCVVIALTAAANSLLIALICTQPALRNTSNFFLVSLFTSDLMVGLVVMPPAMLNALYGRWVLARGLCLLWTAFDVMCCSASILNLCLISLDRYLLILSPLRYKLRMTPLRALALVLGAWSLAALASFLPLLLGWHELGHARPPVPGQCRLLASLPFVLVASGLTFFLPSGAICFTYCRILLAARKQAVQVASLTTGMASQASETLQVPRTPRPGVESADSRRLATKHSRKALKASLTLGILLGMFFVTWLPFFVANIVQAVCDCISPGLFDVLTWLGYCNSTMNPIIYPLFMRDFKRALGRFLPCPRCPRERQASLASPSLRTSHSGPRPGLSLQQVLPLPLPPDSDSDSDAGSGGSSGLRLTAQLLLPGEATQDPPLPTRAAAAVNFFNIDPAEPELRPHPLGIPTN

SMILES: O[C@H](CNCc1ccccc1)[C@H](Cc1ccccc1)NC1c2ccccc2-c2ccccc21 [Compound 1]
- IC50 [1]: 7.76 ± 1.99 µM
- IC50 [2]: 11 µM
- IC50 [3]: 7.08 ± 1.15 µM
- Ki [4]: 49 µM
- IC50 [5]: 0.63 ± 0.02 µM
- inhibition at 10 µM [6]: < 10%
- IC50 [7]: 9.77 ± 1.82 µM
- IC50 [8]: 0.2 µM

SMILES: COc1ccccc1CNC[C@H](O)[C@H](Cc1ccccc1)NC1c2ccccc2-c2ccccc21 [Compound 2]
- IC50 [1]: 6.17 ± 0.57 µM
- IC50 [2]: 6.31 ± 1.02 µM
- Ki [4]: 33.9 µM
- IC50 [5]: 0.28 ± 0.01 µM
- inhibition at 10 µM [6]: < 10%
- IC50 [7]: 13.2 µM
- IC50 [8]: 0.27 ± 0.01 µM

SMILES: COc1cccc(CNC[C@H](O)[C@H](Cc2ccccc2)NC2c3ccccc3-c3ccccc32)c1 [Compound 3]
- IC50 [1]: 7.08 ± 0.49 µM
- IC50 [2]: 7.41 ± 0.34 µM
- Ki [4]: 30.9 µM
- IC50 [5]: 2.2 ± 0.1 µM
- inhibition at 10 µM [6]: < 10%
- IC50 [7]: 12 µM
- inhibition at 1 µM [8]: 67.7%

SMILES: CC(C)(C)c1cccc(CNC[C@@H](O)[C@H](Cc2ccccc2)NC2c3ccccc3-c3ccccc32)c1 [Compound 4]
- IC50 [2]: 14.8 µM
- IC50 [3]: 8.91 ± 1.03 µM
- percent of remaining NO711 binding, mGAT1 [4]: 91%
- IC50 [5]: 0.69 ± 0.04 µM
- inhibition at 10 µM [6]: < 10%
- IC50 [7]: 26.3 µM
- inhibition at 1 µM [8]: 68%

SMILES: O[C@@H](CNCC1CCCCC1)[C@H](Cc1ccccc1)NC1c2ccccc2-c2ccccc21 [Compound 5]
- IC50 [3]: 11.5 µM
- percent of remaining NO711 binding, mGAT1 [4]: 72%
- IC50 [5]: 0.96 ± 0.03 µM
- inhibition at 10 µM [6]: 19.9%
- IC50 [7]: 10.7 µM
- inhibition at 1 µM [8]: 76.5%

SMILES: COc1ccc(NS(=O)(=O)c2ccc(I)cc2)cc1N1CCN(C)CC1 [SB258585, reference compound]
- 5-HT6 antagonist mode E max % [9]: 100%

SMILES: CC(C)(C)OO [tBHP]
- intracellular RONS, times higher ([10]; conc. = IC50, 1 h): 1.21 fold
- intracellular RONS, times lower ([10]; conc. = IC50, 24 h): 1.30 fold
- MDA level, times higher ([11]; IC50, 1 h): 1.45 fold
- MDA level, fold higher ([11]; IC50, 4 h): 1.45 fold
- MDA level, times higher ([11]; IC50, 24 h): 1.61 fold
- MDA level, times higher ([11]; ¼ IC50, 1 h): 1.23 fold
- MDA level, times higher ([11]; ¼ IC50, 24 h): 1.11 fold
- MDA level, times higher ([11]; ½ IC50, 1 h): 1.18 fold
- MDA level, fold higher ([11]; ½ IC50, 4 h): 1.18 fold
- MDA level, times higher ([11]; ½ IC50, 24 h): 1.20 fold
- IC50 [12]: 19.9 ± 1.35 µM
- intracellular RONS, fold vs untreated control ([13]; conc. = IC50, 1 h): 1.25 fold
- intracellular RONS, fold vs untreated control ([13]; conc. = IC50, 4 h): 1.11 fold
- intracellular RONS change ([13]; conc. = IC50, 24 h): decrease of RONS
- intracellular RONS, fold higher ([13]; conc. = ½ IC50, 1 h): 1.12 fold
- IC50 [14]: 60.4 ± 3.54 µM
- intracellular O2•-, times higher ([15]; IC50, 1 h): 1.11 fold
- intracellular O2•-, times higher ([15]; IC50, 4 h): 1.10 fold
- intracellular O2•-, times higher ([15]; IC50, 24 h): 1.25 fold
- intracellular O2•-, fold higher ([15]; ¼ IC50, 24 h): 1.27 fold
- intracellular O2•-, times higher ([15]; ½ IC50, 1 h): 1.10 fold
- intracellular O2•-, times higher ([15]; ½ IC50, 4 h): 1.10 fold
- intracellular O2•-, times higher ([15]; ½ IC50, 24 h): 1.32 fold
- intracellular O2•-, times higher ([16]; IC50, 1 h): 1.25 fold
- intracellular O2•-, times higher ([16]; IC50, 4 h): 1.23 fold
- intracellular O2•-, fold higher ([16]; IC50, 24 h): 1.11 fold
- intracellular O2•-, times higher ([16]; ¼ IC50, 1 h): 1.10 fold
- intracellular O2•-, times higher ([16]; ¼ IC50, 4 h): 1.10 fold
- intracellular O2•-, times higher ([16]; ½ IC50, 1 h): 1.22 fold
- intracellular O2•-, times higher ([16]; ½ IC50, 4 h): 1.16 fold
- intracellular O2•-, fold higher ([16]; ½ IC50, 24 h): 1.10 fold
- MDA level, times higher ([17]; IC50, 4 h): 1.27 fold
- MDA level, fold higher ([17]; IC50, 24 h): 1.45 fold
- MDA level, times higher ([17]; highest concentration (IC50), 1 h): 1.18 fold
- MDA level, times higher ([17]; ¼ IC50, 4 h): 1.16 fold
- MDA level, times higher ([17]; ½ IC50, 4 h): 1.18 fold
- MDA level, fold higher ([17]; ½ IC50, 24 h): 1.15 fold
